Results reported in US9193736B2, “PDE 10a inhibitors for the treatment of type II diabetes” (Janssen Pharmaceutica, NV, priority 2013, dated 2015).
Counter-ions that a name gives are not always drawn.

What was measured:
[1] = PDE10a perfused brain permeability study: plasma concentrations at 30 and 120 min, brain concentration at 120 min, brain/plasma ratio; conditions: for concentration at 2 h / Kp at 2 h: male, Sprague-Dawley, rat; for Kp at 2 h: brain/plasma
Method: PDE10a-Brain Permeability Assay
A. PDE10a-Perfused Brain Permeability Study Protocol
Drug administration by oral gavage, subcutaneous injection or intravenous was carried out using male Sprague Dawley rats under IACUC protocol (SH-MET3010). Male Sprague Dawley rats (Charles River) ˜300-350 g were maintained on a 4% standard rodent diet (Test Diet 5001). They are allowed ad libitum access to water and food. Room temperature was maintained at 64° F. and humidity at 30-70%.
Three animals per compound were provided a dose of 2 mg/mL in 20% HpbCD/Tris pH 8 by tail i.v. or 30 mpk p.o. or s.c. in 20% HpbCD/Tris pH 8, with PDE10a antagonists. A first blood sample was collected at 30 min via retro-orbital sinus (anesthetic by 70% CO2/30% O2) into heparinzed plasma separator tubes. The blood was centrifuged and 100 μL plasma was placed into a 96 well plate and saved on dry ice.
After the 120 min, the final blood sample was collected via retro-orbital sinus under anesthesia by IP 0.5 cc injection of a 4/1 mixture of Ketaset: AnaSed [(prepared 10 mL Ketaset (100 mg/mL Ketamine)+2.5 mL AnaSed (20 mg/mL Xylazine)]. The rats were then perfused with 400 mL heparinized saline (10,000 units/L) through the left ventricle of the heart; the brains were then removed (not including the medulla), weighed and homogenized in PBS (4 mL/g tissue). The samples were stored at −80° C. and submitted for chemical analysis of blood and brain concentrations. Endpoints of sample analysis consists of the plasma concentrations at 30 and 120 min, plus brain concentrations at 120 min.

[2] = molecular target: Rat recombinant PDE10a (rPDE10a) (Rattus norvegicus (Rat), UniProt Q9QYJ6); experiment: In vitro assay PDE10a: rat recombinant PDE10a SPA with 3H-cAMP substrate, IC50; type: biochemical; conditions: 60 nM cAMP, read-out: rPDE10a2 IC50
Sequence of Rat recombinant PDE10a (rPDE10a) (Q9QYJ6 whole entry): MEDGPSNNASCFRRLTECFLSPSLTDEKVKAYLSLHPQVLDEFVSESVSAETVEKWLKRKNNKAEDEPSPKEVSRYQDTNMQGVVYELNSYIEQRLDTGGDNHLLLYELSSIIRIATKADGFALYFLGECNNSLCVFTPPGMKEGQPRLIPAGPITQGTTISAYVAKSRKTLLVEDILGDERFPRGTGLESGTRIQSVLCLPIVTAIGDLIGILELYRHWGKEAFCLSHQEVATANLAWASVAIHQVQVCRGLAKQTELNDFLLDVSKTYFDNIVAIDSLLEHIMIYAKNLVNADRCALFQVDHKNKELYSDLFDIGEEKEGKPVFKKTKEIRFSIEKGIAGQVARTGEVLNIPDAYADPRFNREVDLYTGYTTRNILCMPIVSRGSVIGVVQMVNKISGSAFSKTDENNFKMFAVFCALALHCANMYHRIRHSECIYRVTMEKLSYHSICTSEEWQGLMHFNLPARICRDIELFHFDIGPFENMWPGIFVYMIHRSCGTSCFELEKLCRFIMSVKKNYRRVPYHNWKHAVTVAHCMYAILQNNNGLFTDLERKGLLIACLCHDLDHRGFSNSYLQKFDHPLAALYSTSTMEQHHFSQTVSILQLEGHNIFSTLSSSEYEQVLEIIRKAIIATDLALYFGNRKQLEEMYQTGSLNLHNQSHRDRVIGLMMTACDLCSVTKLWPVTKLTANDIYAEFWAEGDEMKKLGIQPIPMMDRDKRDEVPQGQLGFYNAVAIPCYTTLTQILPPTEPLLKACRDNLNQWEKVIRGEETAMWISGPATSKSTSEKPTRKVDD
Procedure, shortened: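 Enzyme expressed in Sf9 cells via baculovirus and Ni-sepharose purified; reaction with 3H-cAMP ran 60 min at rt, stopped with PDE SPA beads. Compounds diluted in DMSO at 100-fold final concentration; blanks omitted enzyme.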

[3] = molecular target: Human recombinant PDE10A2 (Homo sapiens (Human), UniProt Q9Y233); experiment: In vitro hPDE10a: human recombinant PDE10A2 scintillation proximity assay, IC50; type: biochemical; conditions: human recombinant PDE10A2, SPA, 60 nM cAMP; read-out: hPDE10a2 IC50
Sequence of Human recombinant PDE10A2 (Q9Y233 267-1055): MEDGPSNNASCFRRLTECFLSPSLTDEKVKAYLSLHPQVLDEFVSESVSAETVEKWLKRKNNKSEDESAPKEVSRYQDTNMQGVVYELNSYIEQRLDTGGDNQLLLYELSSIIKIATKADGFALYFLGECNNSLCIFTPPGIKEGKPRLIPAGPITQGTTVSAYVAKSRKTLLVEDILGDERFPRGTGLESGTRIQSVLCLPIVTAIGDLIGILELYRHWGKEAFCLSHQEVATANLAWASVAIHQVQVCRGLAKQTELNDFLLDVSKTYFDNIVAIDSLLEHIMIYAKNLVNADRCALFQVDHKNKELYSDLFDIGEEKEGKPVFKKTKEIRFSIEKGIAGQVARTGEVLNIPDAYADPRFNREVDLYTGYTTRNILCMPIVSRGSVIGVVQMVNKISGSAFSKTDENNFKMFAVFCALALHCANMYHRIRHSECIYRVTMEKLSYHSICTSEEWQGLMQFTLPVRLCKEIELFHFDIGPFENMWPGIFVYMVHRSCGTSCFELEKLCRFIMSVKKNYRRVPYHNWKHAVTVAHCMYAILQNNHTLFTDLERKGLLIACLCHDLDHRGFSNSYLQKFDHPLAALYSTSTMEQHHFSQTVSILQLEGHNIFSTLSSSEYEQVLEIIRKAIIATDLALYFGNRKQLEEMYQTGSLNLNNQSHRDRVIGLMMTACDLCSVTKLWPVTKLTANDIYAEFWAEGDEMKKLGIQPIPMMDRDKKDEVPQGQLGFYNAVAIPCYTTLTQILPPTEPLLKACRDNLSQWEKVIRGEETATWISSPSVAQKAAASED
Procedure, shortened: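 Purified recombinant human PDE10A2 (Ni-sepharose) was assayed by SPA, counting [3H]-AMP product captured on yttrium silicate beads added in zinc sulphate stop solution. Inhibition was expressed as % of activity without compound, with a no-enzyme low control. Repeat data points were aggregated.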

[4] = male Sprague Dawley rats, 2 h, perfused or non-perfused brain

Row | SMILES | concentration at 2 h ([1]; brain) | Kp at 2 h [1] | concentration at 2 h ([1]; plasma) | IC50 [2] | IC50 [3] | Brain conc 2 h [1, 4] | Ratio Br/Pl Mean 2 h [1, 4] | Plasma conc 2 h ([1]; male Sprague Dawley rats, 2 h, perfused or non-perfused brain study)
1 | CS(=O)(=O)NC(=O)c1ccc(-c2c(CCc3ccc4ccccc4n3)nc3c(N4CCOCC4)ccnn23)cn1 [Cpd 30, N-(Methylsulfonyl)-5-(8-morpholino-2-(2-(quinolin-2-yl)ethyl)imidazo[1,2-b]pyridazin-3-yl)picolinamide trifluoroacetic acid salt] | 40.2 ng/g | 2.5 | 107 ng/mL | 2 nM | 1 nM |  |  | 
2 | CS(=O)(=O)NC(=O)c1ccc(-c2c(/C=C/c3ccc4ccccc4n3)nc3c(N4CCOCC4)ccnn23)cn1 [Cpd 27, (E)-N-(Methylsulfonyl)-5-(8-morpholino-2-(2-(quinolin-2-yl)vinyl)imidazo[1,2-b]pyridazin-3-yl)picolinamide trifluoroacetic acid salt] | 1.69 ng/g | 0.005 | 438 ng/mL | 2 nM | 2 nM |  |  | 
3 | O=C(O)CCNC(=O)c1ccc(-c2c(/C=C/c3ccc4ccccc4n3)nc3c(N4CCOCC4)ccnn23)cc1 [compound 44, (E)-3-(4-(8-Morpholino-2-(2-(quinolin-2-yl)vinyl)imidazo[1,2-b]pyridazin-3-yl)benzamido)propanoic acid] | 0 ng/g | 0 | 83 ng/mL | 1 nM | 4 nM |  |  | 
4 | O=C(O)C1CCN(c2ccc(-c3c([C@H]4C[C@H](c5ccc6ccccc6n5)C4)nc4c(N5CCOCC5)ccnn34)cc2)CC1 [compound 168, 1-(4-(8-Morpholino-2-((1r,3r)-3-(quinolin-2-yl)cyclobutyl)imidazo[1,2-b]pyridazin-3-yl)phenyl)piperidine-4-carboxylic acid] | 30.1 ng/g | 0.02 | 1200 ng/mL |  | 2 nM |  |  | 
5 | O=C(O)CCC(=O)Nc1ccc(-c2c(/C=C/c3ccc4ccccc4n3)nc3c(N4CCOCC4)ccnn23)cc1 [compound 48, (E)-4-((4-(8-Morpholino-2-(2-(quinolin-2-yl)vinyl)imidazo[1,2-b]pyridazin-3-yl)phenyl)amino)-4-oxobutanoic acid] | 0 ng/g | 0 | 35 ng/mL | 6 nM | 9 nM |  |  | 
6 | O=C(O)CCc1ccc(-c2c(/C=C/c3ccc4ccccc4n3)nc3c(N4CCOCC4)ccnn23)cn1 [Cpd 125, (E)-3-(5-(8-Morpholino-2-(2-(quinolin-2-yl)vinyl)imidazo[1,2-b]pyridazin-3-yl)pyridin-2-yl)propanoic acid] | 0 ng/g | 0 | 284 ng/mL | 2 nM | 2 nM |  |  | 
7 | O=C(O)c1ccc(-c2c(/C=C/c3ccc4ccccc4n3)nc3c(N4CCOCC4)ccnn23)cc1F [compound 103, (E)-2-Fluoro-4-(8-morpholino-2-(2-(quinolin-2-yl)vinyl)imidazo[1,2-b]pyridazin-3-yl)benzoic acid] | 0 ng/g | 0 | 199 ng/mL | 3 nM | 3 nM |  |  | 
8 | O=C(O)c1ccc(-c2c([C@H]3C[C@H](c4ccc5ccccc5n4)C3)nc3c(N4CCOCC4)ccnn23)cc1 [compound 164, 4-(8-Morpholino-2-((1r,3r)-3-(quinolin-2-yl)cyclobutyl)imidazo[1,2-b]pyridazin-3-yl)benzoic acid trifluoroacetic acid salt] | 0 ng/g | 0 | 162 ng/mL |  | < 1 nM |  |  | 
9 | Oc1nc(-c2ccc(-c3c(C#Cc4ccc5ccccc5n4)nc4c(N5CCOCC5)ccnn34)cn2)no1 [Cpd 26, 3-(5-(8-Morpholino-2-(quinolin-2-ylethynyl)imidazo[1,2-b]pyridazin-3-yl)pyridin-2-yl)-1,2,4-oxadiazol-5-ol] | 37.8 ng/g | 0.26 | 150 ng/mL |  |  |  |  | 
10 | O=C(O)C(F)(F)F.O=C(O)CN1CCC(c2c(C#Cc3ccc4ccccc4n3)nc3c(N4CCOCC4)ccnn23)CC1 [Cpd 25, 2-(4-(8-Morpholino-2-(quinolin-2-ylethynyl)imidazo[1,2-b]pyridazin-3-yl)piperidin-1-yl)acetic acid trifluoroacetic acid salt] |  |  |  |  |  | 0 ng/g | 0 | 5.77 ng/mL
11 | C(=C\c1nc2c(N3CCOCC3)ccnn2c1-c1ccc(Sc2nnc[nH]2)nc1)/c1ccc2ccccc2n1 [Cpd 22, (E)-2-(2-(3-(6-(4H-1,2,4-Triazol-3-ylthio)pyridin-3-yl)-8-morpholinoimidazo[1,2-b]pyridazin-2-yl)vinyl)quinoline] | 117 ng/g | 0.17 | 788 ng/mL |  |  |  |  | 
12 | O=C(O)CNC(=O)c1ccc(-c2c(/C=C/c3ccc4ccccc4n3)nc3c(N4CCOCC4)ccnn23)cc1 [Cpd 66, (E)-2-(4-(8-Morpholino-2-(2-(quinolin-2-yl)vinyl)imidazo[1,2-b]pyridazin-3-yl)benzamido)acetic acid] |  |  |  | 5 nM | 9 nM |  |  | 
13 | O=C(O)[C@@H]1CCCN1C(=O)c1ccc(-c2c(CCc3ccc4ccccc4n3)nc3c(N4CCOCC4)ccnn23)cc1 [Cpd 72, (S)-1-(4-(8-Morpholino-2-(2-(quinolin-2-yl)ethyl)imidazo[1,2-b]pyridazin-3-yl)benzoyl)pyrrolidine-2-carboxylic acid trifluoroacetic acid salt] |  |  |  | 8 nM | 6 nM |  |  | 
14 | O=C(O)c1ccc(-c2c(C#Cc3ccc(C(F)(F)F)cn3)nc3c(N4CCOCC4)ccnn23)cc1 [Cpd 97, 4-(8-Morpholino-2-((5-(trifluoromethyl)pyridin-2-yl)ethynyl)imidazo[1,2-b]pyridazin-3-yl)benzoic acid] |  |  |  | 20 nM | 22 nM |  |  | 
15 | O=C(O)c1ccc(-c2c([C@@H]3C[C@@H]3c3ccc4ccccc4n3)nc3c(N4CCOCC4)cc(Cl)nn23)cc1 [Cpd 147, 4-(6-Chloro-8-morpholino-2-((1R,2S)-2-(quinolin-2-yl)cyclopropyl)imidazo[1,2-b]pyridazin-3-yl)benzoic acid trifluoroacetic acid salt] |  |  |  | 4 nM | 7 nM |  |  | 
16 | O=C(O)c1cc2ccccc2nc1/C=C/c1cn2nc(Cl)cc(N3CCOCC3)c2n1 [Cpd 143, 2-[(E)-2-(6-Chloro-8-morpholin-4-ylimidazo[1,2-b]pyridazin-2-yl)ethenyl]quinoline-3-carboxylic acid] |  |  |  | < 1 nM | 1 nM |  |  | 
17 | N#Cc1ccc(C#Cc2nc3c(N4CCOCC4)ccnn3c2-c2ccc(C(=O)O)cc2)nc1 [Cpd 96, 4-(2-((5-Cyanopyridin-2-yl)ethynyl)-8-morpholinoimidazo[1,2-b]pyridazin-3-yl)benzoic acid] |  |  |  | 31 nM | 22 nM |  |  | 
18 | NS(=O)(=O)c1ccc(-c2c(CCc3ccc4ccccc4n3)nc3c(N4CCOCC4)ccnn23)cc1 [compound 38, 4-(8-Morpholino-2-(2-(quinolin-2-yl)ethyl)imidazo[1,2-b]pyridazin-3-yl)benzenesulfonamide] |  |  |  | 4 nM | 7 nM |  |  | 
19 | O=C(O)c1ccc(-c2c(C#Cc3ccc4ccccc4n3)nc3c(N4CCOCC4)ccnn23)cc1 [Cpd 77, 4-(8-Morpholino-2-(quinolin-2-ylethynyl)imidazo[1,2-b]pyridazin-3-yl)benzoic acid] |  |  |  | < 1 nM | < 1 nM |  |  | 
20 | O=C(O)c1ccc(-c2c(C3CN(c4ccc5ccccc5n4)C3)nc3c(N4CCOCC4)ccnn23)cc1 [Cpd 157, 4-(8-Morpholino-2-(1-(quinolin-2-yl)azetidin-3-yl)imidazo[1,2-b]pyridazin-3-yl)benzoic acid] |  |  |  | 2 nM | 2 nM |  |  | 
21 | CC(=O)NS(=O)(=O)c1ccc(-c2c(/C=C/c3ccc4ccccc4n3)nc3c(N4CCOCC4)ccnn23)cc1 [compound 36, (E)-N-((4-(8-Morpholino-2-(2-(quinolin-2-yl)vinyl)imidazo[1,2-b]pyridazin-3-yl)phenyl)sulfonyl)acetamide] |  |  |  | 2 nM | 2 nM |  |  | 
22 | O=C(O)CN1CCC(c2c(/C=C/c3ccc4ccccc4n3)nc3c(N4CCOCC4)ccnn23)CC1 [Cpd 29, (E)-2-(4-(8-Morpholino-2-(2-(quinolin-2-yl)vinyl)imidazo[1,2-b]pyridazin-3-yl)piperidin-1-yl)acetic acid trifluoroacetic acid salt] |  |  |  | 49 nM | 39 nM |  |  | 
23 | C(=C\c1nc2c(N3CCOCC3)ccnn2c1N1CCCCC1)/c1ccc2ccccc2n1 [compound 154, (E)-4-(3-(Piperidin-1-yl)-2-(2-(quinolin-2-yl)vinyl)imidazo[1,2-b]pyridazin-8-yl)morpholine] |  |  |  | 28 nM | 72 nM |  |  | 
24 | O=C(O)c1ccc(-c2c(/C=C/c3nc4ccccc4s3)nc3c(N4CCOCC4)ccnn23)cc1 [Cpd 90, (E)-4-(2-(2-(Benzo[d]thiazol-2-yl)vinyl)-8-morpholinoimidazo[1,2-b]pyridazin-3-yl)benzoic acid] |  |  |  | 17 nM | 19 nM |  |  | 
25 | O=C(Nc1ccc2ccccc2n1)c1nc2c(N3CCOCC3)ccnn2c1-c1ccc(N2CCNCC2)nc1 [Cpd 3, 8-Morpholino-3-(6-(piperazin-1-yl)pyridin-3-yl)-N-(quinolin-2-yl)imidazo[1,2-b]pyridazine-2-carboxamide trifluoroacetic acid salt] |  |  |  | 676 nM | 759 nM |  |  | 
